Key:
[1] = biological target: T1, Solute carrier family 22 member 6 (Homo sapiens, UniProt Q4U2R8); experiment: Inhibition of OAT1 (unknown origin) expressed in HEK293 cells assessed as inhibition of 6-CFL uptake preincubated for 30 mins followed by incubation with 6-CFL and measured after 15 mins by fluorescence based analysis; type: toxicity, cell-based
T1 sequence (Q4U2R8 whole entry): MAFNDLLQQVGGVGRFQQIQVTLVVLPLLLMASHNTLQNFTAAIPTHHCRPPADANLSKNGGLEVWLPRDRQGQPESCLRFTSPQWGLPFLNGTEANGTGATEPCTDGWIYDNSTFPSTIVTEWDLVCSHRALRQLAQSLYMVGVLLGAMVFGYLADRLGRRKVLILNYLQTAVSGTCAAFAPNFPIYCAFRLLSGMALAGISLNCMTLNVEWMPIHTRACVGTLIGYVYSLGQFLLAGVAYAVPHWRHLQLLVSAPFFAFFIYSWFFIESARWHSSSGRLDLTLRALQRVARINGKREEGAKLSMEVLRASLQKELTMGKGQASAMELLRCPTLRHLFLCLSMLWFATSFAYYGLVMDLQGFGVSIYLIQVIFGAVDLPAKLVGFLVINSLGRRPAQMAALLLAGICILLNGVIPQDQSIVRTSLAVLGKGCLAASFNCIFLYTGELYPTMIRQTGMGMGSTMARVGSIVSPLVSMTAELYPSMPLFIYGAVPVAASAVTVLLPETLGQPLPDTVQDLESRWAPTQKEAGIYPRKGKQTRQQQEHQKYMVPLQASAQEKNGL

Mus musculus [2] = experiment: Anti-hyperuricemic activity against xanthine and potassium oxonate-induced acute hyperuricemia Kunming mouse model assessed as serum uric acid concentration at 10 mg/kg, po measured after 3 hrs (reference value: 846.22 uM); type: functional
[3] = biological target: T2, Solute carrier family 22 member 12 (Homo sapiens, UniProt Q96S37); experiment: Inhibition of URAT1 (unknown origin)-mediated 14C-uric acid uptake expressed in HEK293 cells using 14C-uric acid as substrate preincubated for 30 mins followed by substrate addition and measured after 15 mins by liquid scintillation counting analysis; type: cell-based
T2 sequence (Q96S37 whole entry): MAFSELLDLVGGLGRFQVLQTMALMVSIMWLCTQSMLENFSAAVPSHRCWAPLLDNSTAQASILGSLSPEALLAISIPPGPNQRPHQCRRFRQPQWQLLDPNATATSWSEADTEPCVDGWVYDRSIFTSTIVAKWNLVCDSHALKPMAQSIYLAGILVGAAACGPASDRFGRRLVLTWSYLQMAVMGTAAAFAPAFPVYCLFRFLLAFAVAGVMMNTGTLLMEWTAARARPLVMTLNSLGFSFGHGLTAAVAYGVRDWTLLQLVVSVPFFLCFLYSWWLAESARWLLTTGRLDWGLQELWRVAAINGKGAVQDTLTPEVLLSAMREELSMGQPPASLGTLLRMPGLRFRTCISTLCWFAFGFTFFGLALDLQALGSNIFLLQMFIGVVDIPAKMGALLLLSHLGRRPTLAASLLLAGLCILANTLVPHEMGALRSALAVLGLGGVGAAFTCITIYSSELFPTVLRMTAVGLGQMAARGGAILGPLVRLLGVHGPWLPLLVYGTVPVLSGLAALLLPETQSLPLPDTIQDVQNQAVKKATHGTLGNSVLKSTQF

[4] = Cmax in Sprague-Dawley rat at 5 mg/kg, iv measured upto 36 hrs by LC-MS/MS analysis; type: ADME, organism-based; design: time < 36 hrs, dose 5 mg/kg, route iv; conditions: in vivo
[5] = Inhibition of URAT1 I481M mutant (unknown origin)-mediated 14C-uric acid uptake expressed in HEK293 cells using 14C-uric acid as substrate preincubated for 30 mins followed by substrate addition and measured after 15 mins by liquid scintillation counting analysis; type: cell-based; conditions: Homo sapiens
[6] = Tmax in Sprague-Dawley rat at 5 mg/kg, po measured upto 36 hrs by LC-MS/MS analysis; type: ADME, organism-based; conditions: in vivo
[7] = biological target: T3, Broad substrate specificity ATP-binding cassette transporter ABCG2 (Homo sapiens, UniProt Q9UNQ0); experiment: Inhibition of ABCG2 (unknown origin) expressed in HEK293 cells membrane vesicles assessed as inhibition of ATP-induced 14C-uric acid uptake preincubated for 15 mins followed by incubation with ATP and substrate for 5 mins by liquid scintillation counting analysis; type: toxicity, cell membranes, Membrane vesicle
T3 sequence (Q9UNQ0 whole entry): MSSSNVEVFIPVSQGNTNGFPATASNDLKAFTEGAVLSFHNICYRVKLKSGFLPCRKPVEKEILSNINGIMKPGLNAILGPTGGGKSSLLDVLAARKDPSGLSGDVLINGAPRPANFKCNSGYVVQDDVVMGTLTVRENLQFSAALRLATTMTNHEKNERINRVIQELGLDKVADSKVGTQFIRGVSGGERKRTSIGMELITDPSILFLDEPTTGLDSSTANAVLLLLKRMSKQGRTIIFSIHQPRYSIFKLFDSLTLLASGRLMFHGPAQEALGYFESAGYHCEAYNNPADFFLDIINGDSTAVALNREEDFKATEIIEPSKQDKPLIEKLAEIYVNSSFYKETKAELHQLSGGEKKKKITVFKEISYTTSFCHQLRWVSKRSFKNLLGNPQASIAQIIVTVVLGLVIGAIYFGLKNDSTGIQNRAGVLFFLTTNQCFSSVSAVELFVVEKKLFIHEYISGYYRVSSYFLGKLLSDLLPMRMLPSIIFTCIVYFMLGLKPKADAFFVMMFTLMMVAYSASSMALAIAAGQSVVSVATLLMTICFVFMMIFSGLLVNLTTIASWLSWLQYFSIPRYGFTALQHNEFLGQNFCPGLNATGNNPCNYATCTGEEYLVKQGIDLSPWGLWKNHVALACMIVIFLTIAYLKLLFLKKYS

Mus musculus [8] = experiment: Anti-hyperuricemic activity against xanthine and potassium oxonate-induced acute hyperuricemia Kunming mouse model assessed as increase in urine uric acid concentration at 10 mg/kg, po measured for 24 hrs; type: functional
[9] = Tmax in Sprague-Dawley rat at 5 mg/kg, iv measured upto 36 hrs by LC-MS/MS analysis; type: ADME, organism-based; conditions: in vivo
[10] = Cmax in Sprague-Dawley rat at 5 mg/kg, po measured upto 36 hrs by LC-MS/MS analysis; type: ADME, organism-based; design: time < 36 hrs, dose 5 mg/kg, route po; conditions: in vivo
[11] = Half life in Sprague-Dawley rat at 5 mg/kg, po measured upto 36 hrs by LC-MS/MS analysis; type: ADME, organism-based; conditions: in vivo
[12] = Half life in Sprague-Dawley rat at 5 mg/kg, iv measured upto 36 hrs by LC-MS/MS analysis; type: ADME, organism-based; conditions: in vivo
[13] = AUC (0 to infinity) in Sprague-Dawley rat at 5 mg/kg, po by LC-MS/MS analysis; type: ADME, organism-based; design: time infinity, dose 5 mg/kg, route po; conditions: in vivo
[14] = AUC (0 to infinity) in Sprague-Dawley rat at 5 mg/kg, iv by LC-MS/MS analysis; type: ADME, organism-based; design: time infinity, dose 5 mg/kg, route iv; conditions: in vivo
[15] = MRT (0 to infinity) in Sprague-Dawley rat at 5 mg/kg, po by LC-MS/MS analysis; type: ADME, organism-based; conditions: in vivo
[16] = MRT (0 to infinity) in Sprague-Dawley rat at 5 mg/kg, iv by LC-MS/MS analysis; type: ADME, organism-based; conditions: in vivo
[17] = Oral bioavailability in Sprague-Dawley rat at 5 mg/kg measured upto 36 hrs by LC-MS/MS analysis; type: ADME, organism-based; conditions: in vivo
[18] = Cytotoxicity against human HK-2 cells assessed as reduction in cell viability incubated for 24 hrs by MTT assay; type: toxicity, cell-based
[19] = Cytotoxicity against human HK-2 cells assessed as reduction in cell viability incubated for 48 hrs by MTT assay; type: toxicity, cell-based
[20] = Inhibition of URAT1 R487K mutant (unknown origin)-mediated 14C-uric acid uptake expressed in HEK293 cells using 14C-uric acid as substrate preincubated for 30 mins followed by substrate addition and measured after 15 mins by liquid scintillation counting analysis; type: cell-based; conditions: Homo sapiens
[21] = Inhibition of URAT1 R477K mutant (unknown origin)-mediated 14C-uric acid uptake expressed in HEK293 cells using 14C-uric acid as substrate preincubated for 30 mins followed by substrate addition and measured after 15 mins by liquid scintillation counting analysis; type: cell-based; conditions: Homo sapiens
[22] = Inhibition of URAT1 F365Y mutant (unknown origin)-mediated 14C-uric acid uptake expressed in HEK293 cells using 14C-uric acid as substrate preincubated for 30 mins followed by substrate addition and measured after 15 mins by liquid scintillation counting analysis; type: cell-based; conditions: Homo sapiens
[23] = Inhibition of URAT1 F358Y mutant (unknown origin)-mediated 14C-uric acid uptake expressed in HEK293 cells using 14C-uric acid as substrate preincubated for 30 mins followed by substrate addition and measured after 15 mins by liquid scintillation counting analysis; type: cell-based; conditions: Homo sapiens
[24] = Inhibition of URAT1 F241Y mutant (unknown origin)-mediated 14C-uric acid uptake expressed in HEK293 cells using 14C-uric acid as substrate preincubated for 30 mins followed by substrate addition and measured after 15 mins by liquid scintillation counting analysis; type: cell-based; conditions: Homo sapiens
[25] = Inhibition of URAT1 S35N mutant (unknown origin)-mediated 14C-uric acid uptake expressed in HEK293 cells using 14C-uric acid as substrate preincubated for 30 mins followed by substrate addition and measured after 15 mins by liquid scintillation counting analysis; type: cell-based; conditions: Homo sapiens

CC(C)(Sc1ccncc1-c1ccc(C#N)c2ccccc12)C(=O)[O-].[Na+]
IC50 [1]: 12.7 µM
Activity (Mus musculus [2]): 625.24 µM
IC50 [3]: 0.17 µM
Cmax [4]: 13400 ng/mL
IC50 [5]: 0.94 µM
Tmax [6]: 0.46 h
IC50 [7]: 18.7 µM
Activity (Mus musculus [8]): 2371.02 µM
Tmax [9]: 5.4 min
Cmax [10]: 7210 ng/mL
half-life [11]: 4.01 h
half-life [12]: 3.49 h
AUC(0-inf) [13]: 4130 ng·h/mL
AUC(0-inf) [14]: 19700 ng·h/mL
MRT inf [15]: 4.05 h
MRT inf [16]: 3.46 h
bioavailability [17]: 21.5%
IC50 at 24 h [18]: 197 µM
IC50 at 48 h [19]: 109 µM
IC50 [20]: 0.11 µM
IC50 [21]: 1.24 µM
IC50 [22]: 5.01 µM
IC50 [23]: 0.24 µM
IC50 [24]: 2.14 µM
IC50 [25]: 4.21 µM

Reference: ChEMBL document CHEMBL5154691, “Discovery of novel verinurad analogs as dual inhibitors of URAT1 and GLUT9 with improved Druggability for the treatment of hyperuricemia” (Eur J Med Chem, 2022)
